Data: patent publication US20120214862A1, “MODULATION OF FACTOR 7 EXPRESSION” (ISIS Pharmaceuticals, Inc., priority 2009, published 2012)
In the oligonucleotide strings, read from the 5' end, every base follows the letter of its sugar. An asterisk marks phosphorothioate; unmarked linkages are phosphodiester. Other units and linkages are bracketed, terminal groups are in braces. A string of capitals states the bases alone. e = 2'-O-(2-methoxyethyl) (MOE); [5mC] = 5-methylcytosine; d = 2'-deoxy (DNA)

Assays:
[1] = test system: human Factor 7 mRNA; assay: Dose-dependent antisense inhibition of human Factor 7 in HepB3 cells, transfection with lipofectin; assay type: cell-based; details: for percent inhibition of Factor 7 mRNA, relative to untreated control cells: lipofectin, HepB3 cells, 16 hours; for percent inhibition of Factor 7 mRNA, 3.125 nM / percent inhibition of Factor 7 mRNA, 6.25 nM / percent inhibition of Factor 7 mRNA, 12.5 nM / percent inhibition of Factor 7 mRNA, 25.0 nM / percent inhibition of Factor 7 mRNA, 50.0 nM / percent inhibition of Factor 7 mRNA, 100.0 nM: HepB3, lipofectin, ~16 h
Outline: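 HepB3 cells (4,000/well) lipofectin-transfected with antisense oligonucleotide at 3.125 or 6.25 up to 100 nM for ~16 h. Factor 7 mRNA measured by real-time RT-PCR with primer probe set RTS 2927, adjusted to RIBOGREEN total RNA; expressed as percent inhibition versus untreated control cells.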

[2] = test system: murine Factor 7 mRNA; assay: Liver Factor 7 mRNA by real-time RT-PCR in treated BALB/c mice; assay type: in vivo, mouse; details: for % inhibition of murine Factor 7 mRNA: BALB/c liver; for % inhibition of murine Factor 7 mRNA / % inhibition of Factor 7 mRNA: relative to PBS control; for % inhibition of Factor 7 mRNA: liver; for % inhibition of Factor 7 mRNA (liver): mice
Description: A control group of mice was injected subcutaneously with PBS twice a week for 3 weeks. After the treatment period, whole liver was collected for RNA and protein analysis, and plasma was collected for clotting analysis (PT/aPTT).
(§1) RNA was extracted from liver tissue for real-time RT-PCR analysis of Factor 7.
A control group of 3 mice was injected with a single dose of PBS, and mice in this group were sacrificed on day 1. Mice in all groups were sacrificed by cervical dislocation following anesthesia with 150 mg/kg ketamine mixed with 10 mg/kg xylazine administered by intraperitoneal injection. Liver was harvested for RNA analysis and plasma was collected for clotting analysis (PT and aPTT).
as §1
Mice from the first group were sacrificed on days 1 and 3 after the single dose. […] A control group of 3 mice was injected with PBS in a single dose. Mice from the control group were sacrificed 1 day later. Mice in all groups were sacrificed by cervical dislocation following anesthesia with 150 mg/kg ketamine mixed with 10 mg/kg xylazine administered by intraperitoneal injection. Liver was harvested for RNA analysis and plasma was collected for clotting analysis (PT and aPTT) for mice in all groups.
RNA was extracted from liver tissue for quantitative RT-PCR analysis of Factor 7.
Two control groups of BALB/c mice were treated with PBS, administered subcutaneously twice a week for 3 weeks. Thrombus formation was induced with FeCl3 in half of the mice while the rest of the mice were assayed for tail bleeding. […] Thrombus formation was induced with FeCl3 in all groups of the VT mice except the first control group.
as §1
A fifth group of BALB/c mice was treated with 3 mg/kg of warfarin, administered intraperioneally daily for 6 days. Four hours after the last dose of warfarin, mice were sacrificed. A control group of BALB/c mice were treated with PBS, administered subcutaneously twice a week for 3 weeks. Two days after the last dose of PBS, mice were anesthetized with 150 mg/kg ketamine mixed with 10 mg/kg xylazine administered by intraperitoneal injection. Thrombus formation was induced with FeCl3 in groups of mice except the first control group.

[3] = single dose 50 mg/kg, BALB/c mice

Substance: 407939 (antisense eT*eG*e[5mC]*eA*eG*d[5mC]*d[5mC]*d[5mC]*dG*dG*d[5mC]*dA*d[5mC]*d[5mC]*d[5mC]*eA*eG*e[5mC]*eG*eA) [compound 407939]
- percent inhibition of Factor 7 mRNA, relative to untreated control cells ([1]; 3.125 nM): 17%
- percent inhibition of Factor 7 mRNA, relative to untreated control cells ([1]; 12.5 nM): 57%
- percent inhibition of Factor 7 mRNA, relative to untreated control cells ([1]; 25 nM): 75%
- percent inhibition of Factor 7 mRNA, relative to untreated control cells ([1]; 50 nM): 80%
- percent inhibition of Factor 7 mRNA, relative to untreated control cells ([1]; 100 nM): 83%
- percent inhibition of Factor 7 mRNA, 3.125 nM ([1]; Example 2, 3.125 nM): 62%
- percent inhibition of Factor 7 mRNA, 6.25 nM ([1]; Example 2): 79%
- percent inhibition of Factor 7 mRNA, 12.5 nM ([1]; Example 2, 12.5 nM): 83%
- percent inhibition of Factor 7 mRNA, 25.0 nM ([1]; Example 2): 91%
- percent inhibition of Factor 7 mRNA, 50.0 nM ([1]; Example 2): 92%
- percent inhibition of Factor 7 mRNA, 100.0 nM ([1]; Example 2): 92%
- percent inhibition of Factor 7 mRNA, 6.25 nM ([1]; Example 5): 37%
- percent inhibition of Factor 7 mRNA, 12.5 nM ([1]; Example 5, 12.5 nM): 57%
- percent inhibition of Factor 7 mRNA, 25.0 nM ([1]; Example 5): 77%
- percent inhibition of Factor 7 mRNA, 50.0 nM ([1]; Example 5): 84%
- percent inhibition of Factor 7 mRNA, 100.0 nM ([1]; Example 5): 87%
- percent inhibition of Factor 7 mRNA, relative to untreated control cells [1]: 35%

Substance: CCATAGAACAGCTTCACAGG (sugars from the 5' end e5 d10 e5, backbone and methylation of C not given here) [ISIS 403102]
- % inhibition of murine Factor 7 mRNA ([2]; 5 mg/kg sc twice a week for 3 weeks): 64%
- % inhibition of murine Factor 7 mRNA ([2]; 10 mg/kg sc twice a week for 3 weeks): 84%
- % inhibition of murine Factor 7 mRNA ([2]; 25 mg/kg sc twice a week for 3 weeks): 96%
- % inhibition of murine Factor 7 mRNA ([2]; 50 mg/kg sc twice a week for 3 weeks): 99%
- reduction of murine Factor 7 (liver mRNA) over PBS control ([2]; 5-50 mg/kg sc twice a week for 3 weeks, BALB/c mice): dose-dependent reduction
- % Inhibition of murine Factor 7 mRNA (liver) ([2]; BALB/c mice, single dose 50 mg/kg, day 1): 61%
- % Inhibition of murine Factor 7 mRNA (liver) ([2]; BALB/c mice, single dose 50 mg/kg, day 2): 87%
- % Inhibition of murine Factor 7 mRNA (liver) ([2]; BALB/c mice, single dose 50 mg/kg, day 3): 92%
- % Inhibition of murine Factor 7 mRNA (liver) ([2]; BALB/c mice, single dose 50 mg/kg, day 4): 92%
- % Inhibition of murine Factor 7 mRNA (liver) ([2]; BALB/c mice, single dose 50 mg/kg, day 6): 86%
- % Inhibition of murine Factor 7 mRNA (liver) ([2]; BALB/c mice, single dose 50 mg/kg, day 8): 80%
- % Inhibition of murine Factor 7 mRNA (liver) ([2]; BALB/c mice, single dose 50 mg/kg, day 12): 72%
- % Inhibition of murine Factor 7 mRNA (liver) ([2]; BALB/c mice, single dose 50 mg/kg, day 24): 11%
- % Inhibition of murine Factor 7 mRNA (liver) ([2]; BALB/c mice, single dose 50 mg/kg, day 56): 0%
- Factor 7 inhibition over time ([2]; Example 13, 6 doses of 25 mg/kg sc, days 14, 28, 42 and 56 after last dose): declined progressively
- inhibition of Factor 7 mRNA, onset ([2]; Example 13, single dose 25 mg/kg sc): inhibition of Factor 7 as early as day 1
- reduction of Factor 7 mRNA in comparison to the PBS control ([2]; Example 14, 25, 37.5 or 50 mg/kg sc twice a week for 3 weeks, FeCl3 VT model): significant dose-dependent reduction
- reduction of Factor 7 mRNA in comparison to the PBS control ([2]; Example 15, 5-40 mg/kg sc twice a week for 3 weeks): significant dose-dependent reduction
- % inhibition of Factor 7 mRNA ([2]; BALB/c mice, FeCl3 VT model (Example 15), 5 mg/kg s.c. twice a week for 3 weeks): 59%
- % inhibition of Factor 7 mRNA ([2]; BALB/c mice, FeCl3 VT model (Example 15), 10 mg/kg s.c. twice a week for 3 weeks): 84%
- % inhibition of Factor 7 mRNA ([2]; BALB/c mice, FeCl3 VT model (Example 15), 20 mg/kg s.c. twice a week for 3 weeks): 95%
- % inhibition of Factor 7 mRNA ([2]; BALB/c mice, FeCl3 VT model (Example 15), 40 mg/kg s.c. twice a week for 3 weeks): 99%
- % inhibition of Factor 7 mRNA ([2]; BALB/c mice, FeCl3 VT model, 25 mg/kg s.c. twice a week for 3 weeks): 24%
- % inhibition of Factor 7 mRNA ([2]; BALB/c mice, FeCl3 VT model, 37.5 mg/kg s.c. twice a week for 3 weeks): 74%
- % inhibition of Factor 7 mRNA ([2]; BALB/c mice, FeCl3 VT model, 50 mg/kg s.c. twice a week for 3 weeks): 69%
- % inhibition of Factor 7 mRNA (liver) ([2]; 25 mg/kg s.c. twice a week, 2 doses, 3 days after last dose): 86%
- % inhibition of Factor 7 mRNA (liver) ([2]; 25 mg/kg s.c. twice a week, 4 doses, 3 days after last dose): 91%
- % inhibition of Factor 7 mRNA (liver) ([2]; 25 mg/kg s.c. twice a week, 6 doses, 2 days after last dose): 83%
- % inhibition of Factor 7 mRNA (liver) ([2]; 25 mg/kg s.c. twice a week, 6 doses, 7 days after last dose): 88%
- % inhibition of Factor 7 mRNA (liver) ([2]; 25 mg/kg s.c. twice a week, 6 doses, 14 days after last dose): 64%
- % inhibition of Factor 7 mRNA (liver) ([2]; 25 mg/kg s.c. twice a week, 6 doses, 28 days after last dose): 33%
- % inhibition of Factor 7 mRNA (liver) ([2]; 25 mg/kg s.c. twice a week, 6 doses, 42 days after last dose): 5%
- % inhibition of Factor 7 mRNA (liver) ([2]; 25 mg/kg s.c. twice a week, 6 doses, 56 days after last dose): 11%
- % inhibition of Factor 7 mRNA (liver) ([2]; 25 mg/kg s.c., 1 dose, 1 day after last dose): 44%
- % inhibition of Factor 7 mRNA (liver) ([2]; 25 mg/kg s.c., 1 dose, 3 days after last dose): 74%
- duration of action [2, 3]: at least 24 days
- peak effect of a single dose occurs on [2, 3]: ~4 days
- inhibition of Factor 7 mRNA ([2]; single dose 50 mg/kg, day 4): 92%
- inhibition of Factor 7 mRNA ([2]; single dose 50 mg/kg, day 24): 11%
- Factor 7 mRNA levels ([2]; single dose 50 mg/kg, day 56): equal to that of the PBS control

Substance: 407935 (antisense eA*eT*eG*e[5mC]*eA*dT*dG*dG*dT*dG*dA*dT*dG*d[5mC]*dT*eT*e[5mC]*eT*eG*eA) [compound 407935]
- percent inhibition of Factor 7 mRNA, relative to untreated control cells ([1]; 3.125 nM): 19%
- percent inhibition of Factor 7 mRNA, relative to untreated control cells ([1]; 12.5 nM): 58%
- percent inhibition of Factor 7 mRNA, relative to untreated control cells ([1]; 25 nM): 70%
- percent inhibition of Factor 7 mRNA, relative to untreated control cells ([1]; 50 nM): 85%
- percent inhibition of Factor 7 mRNA, relative to untreated control cells ([1]; 100 nM): 87%
- percent inhibition of Factor 7 mRNA, 3.125 nM ([1]; Example 2, 3.125 nM): 57%
- percent inhibition of Factor 7 mRNA, 6.25 nM ([1]; Example 2): 76%
- percent inhibition of Factor 7 mRNA, 12.5 nM ([1]; Example 2, 12.5 nM): 78%
- percent inhibition of Factor 7 mRNA, 25.0 nM ([1]; Example 2): 89%
- percent inhibition of Factor 7 mRNA, 50.0 nM ([1]; Example 2): 90%
- percent inhibition of Factor 7 mRNA, 100.0 nM ([1]; Example 2): 89%
- percent inhibition of Factor 7 mRNA, 6.25 nM ([1]; Example 5): 38%
- percent inhibition of Factor 7 mRNA, 12.5 nM ([1]; Example 5, 12.5 nM): 53%
- percent inhibition of Factor 7 mRNA, 25.0 nM ([1]; Example 5): 70%
- percent inhibition of Factor 7 mRNA, 50.0 nM ([1]; Example 5): 82%
- percent inhibition of Factor 7 mRNA, 100.0 nM ([1]; Example 5): 86%
- percent inhibition of Factor 7 mRNA, relative to untreated control cells [1]: 39%
